Six compounds from article PMC11375437, “Selective labelling of GBA2 in cells with fluorescent β-D-arabinofuranosyl cyclitol aziridines” (Chemical Science, 2024) can be followed below.

Usually IC50 stands for the concentration at which inhibition is half-maximal.

Structures are written as SMILES. Several values for one entry are separate records, joined by “and”; a condition that tells them apart may be missing. Equal values may be shown once. Read-outs that look alike come from different tables or passages of the source. A value given as a limit tells only on which side of the number the result lay.

This assay deals with T1, GBA2 (Homo sapiens, UniProt Q9HCG7).
T1 sequence (Q9HCG7 1-927): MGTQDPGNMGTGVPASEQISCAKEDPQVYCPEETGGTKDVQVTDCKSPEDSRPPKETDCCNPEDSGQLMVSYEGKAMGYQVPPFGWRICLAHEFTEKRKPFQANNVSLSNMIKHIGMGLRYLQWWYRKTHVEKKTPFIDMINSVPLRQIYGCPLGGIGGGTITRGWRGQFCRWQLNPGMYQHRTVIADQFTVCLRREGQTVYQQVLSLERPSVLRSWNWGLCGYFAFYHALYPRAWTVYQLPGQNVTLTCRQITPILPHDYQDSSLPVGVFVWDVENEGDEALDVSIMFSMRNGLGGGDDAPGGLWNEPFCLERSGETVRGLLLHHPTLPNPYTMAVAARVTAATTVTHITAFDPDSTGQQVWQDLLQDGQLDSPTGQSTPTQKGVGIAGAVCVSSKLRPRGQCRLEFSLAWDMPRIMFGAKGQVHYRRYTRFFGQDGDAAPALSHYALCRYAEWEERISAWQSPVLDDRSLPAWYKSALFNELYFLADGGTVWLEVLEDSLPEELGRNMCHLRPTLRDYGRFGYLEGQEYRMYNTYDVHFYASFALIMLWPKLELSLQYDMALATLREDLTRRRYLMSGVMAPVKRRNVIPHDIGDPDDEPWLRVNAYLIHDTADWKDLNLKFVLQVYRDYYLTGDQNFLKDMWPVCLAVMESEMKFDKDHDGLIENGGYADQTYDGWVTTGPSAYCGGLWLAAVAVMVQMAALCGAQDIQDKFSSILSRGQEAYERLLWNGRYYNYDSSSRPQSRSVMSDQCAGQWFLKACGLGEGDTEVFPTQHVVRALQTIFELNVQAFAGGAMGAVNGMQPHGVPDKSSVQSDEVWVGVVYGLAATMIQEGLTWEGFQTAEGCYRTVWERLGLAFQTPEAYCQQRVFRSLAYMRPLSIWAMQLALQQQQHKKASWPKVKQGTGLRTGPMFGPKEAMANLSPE
As to the kind of experiment: 4MU fluorogenic substrate assay for apparent IC50, GBA2. The arrangement: expressed in transfected cells; host or cells: HEK293T GBA1/GBA2 KO (CRISPR/Cas9), GBA2 overexpressed. It is filed as biochemical. Particulars: 4MU-β-D-Glc. An excerpt: To identify an ABP that selectively labels human GBA2 over GBA1 and GBA3, a library of cyclophellitol-based ABPs with varying configurations (ESI Fig. S1 ^†) was screened for their selectivity towards human retaining β-glucosidases. For this purpose, we initially assessed the inhibition properties of the compounds using recombinant human GBA1 (rhGBA1, imiglucerase), lysates of cells overexpressing GBA2 or GBA3 (both in combination with knockout of the other retaining β-glucosidases). In a preliminary screen, enzymes were pre-incubated for 30 min with the tested compounds, followed by the addition of the fluorogenic substrate, 4MU-β-D-Glc, and subsequent quantification of released fluorescent 4MU after 30 minutes. This screening brought our attention to a new set of β-D-Araf cyclitol aziridines as potential GBA2 inhibitors. […] On the other hand, the biotin-tagged β-D-Araf compound 6 is a poor inhibitor of all three glucosidases (apparent IC50 > 8 μM). Arabinofuranosyl cyclitol 12–20 with various configurations (α-L-Araf and β-L-Araf) were also evaluated (ESI Fig. S1 ^†).
Recombinant human GBA1 (rhGBA1, Imiglucerase) was kindly provided by Sanofi Genzyme (Cambridge, MA, USA). 4-Methylumbelliferyl-β-D-glucopyranoside substrates were purchase from Glycosynth (Warrington Cheshire, UK). Protein concentration was measured using the Pierce BCA assay kit (Thermo Fisher Scientific, Waltham, MA, USA). Harvested cells (cell pellets), cell lysates and tissue homogenates not used directly were stored at -80 °C.
HEK293T (CRL‐3216™) cells were purchased from ATCC (Manassas, VA, USA). HEK293T cells were cultured in DMEM medium (Sigma‐Aldrich), supplied with 10% (v/v) FCS, 0.1% (w/v) penicillin/streptomycin and 1% (v/v) Glutamax, under 37 °C and 5% or 7% CO2. […]
2.3 Generation of cells genetically modified for β-glucosidase expression For overexpression of the different β-glucosidases, "wildtype" HEK293T cells, HEK293T cells with GBA2 knockout (KO) or HEK293T cells with both GBA1 and GBA2 KO were used, following by the overexpression (OE) of targeted β-glucosidases using the constructs as described in references.1,2 Either GBA2 or GBA3 were overexpressed in GBA1/GBA2 KO HEK293T (generated by the CRISPR/Cas9 method2) to generate GBA1/2 KOs with GBA2 (or GBA3) for overexpression in HEK293T cells as indicated, or using "wildtype" HEK293T cells containing endogenous GBA1 and GBA2 to overexpress both GBA2 and GBA3, these were generated as described in our previous report.1,2 […]
Cells were cultured with the method described above to 80-90% confluency, and were isolated, washed with Dulbecco′s phosphate buffered saline (PBS) and subsequently collected using the following method.3 HEK293T and RPE-1 cells were easily detached from the culture plate by trypsin treatment after which some DMEM medium was added. The cells were collected by pipetting and DMEM medium was removed by centrifuging. The cells were washed with cold PBS three times, after which they were centrifuged to remove PBS and then stored at –80 °C for further use or lysed in potassium phosphate buffer (K2HPO4-KH2PO4, 25 mM, pH 6.5, supplemented with 0.1% (v/v) Triton X-100 and protease inhibitor cocktail (EDTA-free, Roche, Basel, Switzerland)) by sonication with a Polytron PT 1300D sonicator (Kinematica, Luzern, Switzerland). After sonication, lysed mixtures were centrifuged at 10,000 x g for 3 min at 4°C, and the supernatants where desired β-glucosidases exist were used for the experiment.
2.5 4MU fluorogenic substrate assay for apparent IC50 determination
4MU fluorogenic substrate assays (using recombination human rhGBA1 or lysates of HEK293T cells) were conducted in 96-well plates at 37 °C. Samples were diluted with McIlvaine buffer (150 mM citric acid-Na2HPO4) to a final volume of 25 μL, at the appropriate pH for each enzyme. Assays were performed by incubating the samples with 100 μL 4-methylumbelliferyl-β-D-glucopyranoside substrate diluted in McIlvaine buffer for a period of 30 min. […]

Where [1] appears, read: Apparent IC50 GBA2, GBA1/GBA2 KO GBA2 OE HEK293T cell lysate, 30 min pre-incubation, pH 5.8, n = 3 for β-D-Araf, n = 1 for α-L-Araf and β-L-Araf.
Setting [2] is: GBA1/GBA2 KO GBA2 OE HEK293T cell lysate, 30 min pre-incubation, pH 5.8, n = 3 for β-D-Araf, n = 1 for α-L-Araf and β-L-Araf, read-out: Apparent IC50 GBA2.

`CC1=CC(C)=[N+]2C1=C(CCCCc1cn(CCCCCCCCN3[C@@H]4[C@H](CO)[C@@H](O)[C@H](O)[C@@H]43)nn1)c1c(C)cc(C)n1[B-]2(F)F` (some centres unmarked) [ABP 3]: the IC50 under setting [1] was 120 to 160 nM and 124 nM.

As for `COc1ccc(C2=[N+]3C(=C(CCCCc4cn(CCCCCCCCN5[C@@H]6[C@H](CO)[C@@H](O)[C@H](O)[C@@H]65)nn4)c4ccc(-c5ccc(OC)cc5)n4[B-]3(F)F)C=C2)cc1` (some centres unmarked) [ABP 4], under setting [1], the IC50 was 120 to 160 nM and 162 nM.

As for `CN1/C(=C/C=C/C=C/C2=[N+](CCCCCC(=O)NCc3cn(CCCCCCCCN4[C@@H]5[C@H](CO)[C@@H](O)[C@H](O)[C@@H]54)nn3)c3ccccc3C2(C)C)C(C)(C)c2ccccc21` (some centres unmarked) [ABP 5], the IC50 under setting [1] is 250 to 300 nM and 264 nM.

On to `O=C(CCCC[C@@H]1SC[C@@H]2NC(=O)N[C@@H]21)NCc1cn(CCCCCCCCN2[C@@H]3[C@H](CO)[C@@H](O)[C@H](O)[C@@H]32)nn1` (some centres unmarked) [ABP 6], for which the IC50 is > 8000 nM (Apparent IC50 GBA2, 30 min pre-incubation) and 8480 ± 763 nM under setting [1].

Turning to `OC[C@@H]1[C@@H](O)[C@H](O)[C@@H]2N[C@H]12` [Compound 1, β-D-Arabinofuranosyl cyclitol aziridine], the IC50 runs as follows: (30 min pre-incubation, read-out: Apparent IC50 GBA2) > 50000 nM; under setting [2], > 50000 nM.

As to `[N-]=[N+]=NCCCCCCCCN1[C@@H]2[C@H](CO)[C@@H](O)[C@H](O)[C@@H]21` (stereo partly drawn) [Compound 2, β-D-arabinofuranosyl cyclitol aziridine-azidooctyl], the IC50 under setting [2] came to 630 nM.
